Patent US20200000917A1, “METHODS OF PHOTOCHEMICAL TREATMENT FOR WOUND HEALING” (The General Hospital Corporation, priority 2017, published 2020)

What was measured:
[1] = tested on: full-thickness, excisional 1 cm by 1 cm wounds on the dorsa of C57BL/6 mice; test: Histology of harvested wound tissue after photochemical treatment; assay type: in vivo; conditions: days 7, 21 and 42 post wound creation; Rose Bengal solution + KTP laser 532 nm, 60 J/cm2
Experimental: By way of example, the above-described system 20 and method 10 were studied in comparison to untreated control wounds. The study was carried out according to the steps illustrated in FIG. 3. Generally, FIG. 3 illustrates a wound creation step 30, an activating agent delivery step 32, an illumination step 34, and a post-treatment step 36. More specifically, at step 30, full-thickness, excisional 1 cm by 1 cm wounds 38 were created on the dorsa of C57BL/6 mice 40 in both a control group of 16 mice and a test group of 16 mice. Additionally, dots 42 were tattooed on the skin around the wound perimeter in both the control and test groups (as shown in step 34) in order to monitor contracture over the course of wound healing. Following step 30, control group wounds were left alone to heal. With respect to the test group, at step 32, a Rose Bengal solution was painted onto wound beds 38 (e.g., as discussed above with respect to process block 12 of FIG. 1). At step 34, the wounds 38 were illuminated by an electromagnetic radiation source 26, in particular, a KTP laser having a 532-nanometer wavelength, with an energy output of 60 Joules per centimeter squared (e.g., as discussed above with respect to process block 14 of FIG. 1). […]
To compare the test and control groups, the area within each tattooed wound perimeter was serially measured over 6 weeks and percent contracture was calculated. […]

[2] = tested on: full-thickness, excisional 1 cm by 1 cm wounds on the dorsa of C57BL/6 mice; test: Wound contracture after photochemical treatment (area within tattooed wound perimeter); assay type: in vivo
Experimental: By way of example, the above-described system 20 and method 10 were studied in comparison to untreated control wounds. The study was carried out according to the steps illustrated in FIG. 3. Generally, FIG. 3 illustrates a wound creation step 30, an activating agent delivery step 32, an illumination step 34, and a post-treatment step 36. More specifically, at step 30, full-thickness, excisional 1 cm by 1 cm wounds 38 were created on the dorsa of C57BL/6 mice 40 in both a control group of 16 mice and a test group of 16 mice. Additionally, dots 42 were tattooed on the skin around the wound perimeter in both the control and test groups (as shown in step 34) in order to monitor contracture over the course of wound healing. Following step 30, control group wounds were left alone to heal. With respect to the test group, at step 32, a Rose Bengal solution was painted onto wound beds 38 (e.g., as discussed above with respect to process block 12 of FIG. 1). At step 34, the wounds 38 were illuminated by an electromagnetic radiation source 26, in particular, a KTP laser having a 532-nanometer wavelength, with an energy output of 60 Joules per centimeter squared (e.g., as discussed above with respect to process block 14 of FIG. 1). Steps 32 and 34 were conducted immediately after wound creation at step 30. Step 36 illustrates the immediate result of wound treatment, that is, the photobleaching of Rose Bengal dye.
To compare the test and control groups, the area within each tattooed wound perimeter was serially measured over 6 weeks and percent contracture was calculated. Additionally, at 7, 14, 21, and 42 days, mice were euthanized and tissue was harvested for histology.

Structure (SMILES): O=C([O-])c1c(Cl)c(Cl)c(Cl)c(Cl)c1-c1c2cc(I)c(=O)c(I)c-2oc2c(I)c([O-])c(I)cc12.[Na+].[Na+] [Rose Bengal]
- histological review of wound tissue compared to control group tissue [1]: increased ingrowth and development of dermal cells, increased vascularity, and appearance of skin appendages earlier and to a greater degree
- more contracture in control wounds than in test group ([2]; by day 7): ~20%
- percent contracture ([2]; day 7, Rose Bengal solution painted on wound bed, KTP laser 532 nm, 60 J/cm2, immediately after wound creation, control 80.3±8.5%, p=0.014): 67.1±17.1%
- wounds contracted to (percentage of initial area of skin around wound perimeter) ([2]; day 42, Rose Bengal solution + KTP laser 532 nm, 60 J/cm2, control 13.6±5.6%, p=0.003): 35.2±2.9%
- fold difference in remaining area, test group versus control group ([2]; day 42, p=0.003): 1.59 fold
